Reference: patent US5041436A, “1-arylsulphonyl-2-piperidinone derivatives, process and intermediates for the preparation thereof, their application as antispasmodics and compositions containing them” (Roussel Uclaf, priority 1989, dated 1991)
Where two headings read alike, the source gives them in different places.

Legend:
[1] = tested on: isolated guinea pig ileum; assay: Agonist action on isolated guinea pig ileum; conditions: negative logarithm of the dose which produces 50% of maximum effect
Procedure: (§1) The interaction of the compounds with different receptors was assessed on isolated guinea pig ileum according to the following method.
(§2) Guinea pig ileum segments measuring 2.5-3 cm were washed and immediately suspended in a bath containing 10 ml of Tyrode's solution at 37° C. aerated with a mixture of oxygen (95%) and carbon dioxide (5%). After a stabilization period of at least 30 minutes, the contractions were recorded, maintaining the preparation under constant tension of 1 g using a gauge connected to a polygraph. The agonist action was assessed by leaving the compound in contact with the isolated tissue for a period necessary for expressing the maximal contraction; the preparation was then washed with Tyrode's solution. The next dose was added to the bath only after the preparation had returned to its base line. As a reference product, arecoline was employed. The antagonist action was assessed on contractions induced by acetyl choline (1×10^-6 M), histamine (1×10^-5 M) and barium chloride (2×10^-4 M). Atropine, diphenhydramine and papaverine were emplohyed as reference products. The contact time before adding the agonist was one minute.
(§3) For each compound, the dose-response curves are obtained with 4 to 6 different concentrations and 3 to 5 independent tests. The agonist activity is expressed by pD2 (negative logarithm of the dose which produces 50% of maximum effect). The antagonist activity is expressed by IC50 (concentration inhibiting 50% of the maximal response).

[2] = tested on: isolated guinea pig ileum, contractions induced by acetyl choline; assay: Antagonist action on contractions induced by acetyl choline, isolated guinea pig ileum; conditions: acetyl choline 1×10^-6 M; contact time one minute; 37° C.; read-out: Antagonist to different agents (IC50), ACh
Procedure: as §1, §2, §3

[3] = tested on: cholinomimetic effects induced by carbachol; assay: In vivo anticholinergic action: inhibition of cholinomimetic effects induced by carbachol in mice; design: species or system CD1 male mice; conditions: Mus musculus, ip; for ED (1 degree C): rectal temperature, read-out: Body temperature: dose increasing by 1° C. the hypothermic effect induced by the cholinergic agent
Procedure: The anticholinergic activity of the compounds was determined by assessing the capacity to inhibit the cholinomimetic effects induced by carbachol. Atropine sulphate was employed as a reference product.
CD1 male mice weighing 25 to 30 g were used. They were distributed in groups of 6 animals and treated intraperitoneally with scalar doses of the products or 0.25% Methocel for the controls. 12 animals were used for each dose. 30 minutes after administration of the compounds, the mice were injected subcutaneously with 1 mg/kg of carbachol dissolved in physiological saline.
Each animal was examined 30 minutes after the injection of carbachol to assess the presence of diarrhoea, salivation and eye watering; in addition, the body temperature was measured by means of a thermocouple inserted 1.5 cm into the rectum.
For each compound, we have determined and recorded in the following table the dose capable of inhibiting the appearance of the carbachol-induced cholinometric symptoms in 50% of the animals, and of increasing by 1° C. the hypothermic effect induced by the cholinergic agent.

histamine receptors = assay: Binding to other brain receptors: histamine; conditions: negligible affinity
Source text: (§4) 1) Binding to different brain receptors.

[4] = molecular target: serotonin 5-HT1 receptors; assay: Binding to other brain receptors: serotonin 5-HT1; conditions: negligible affinity
Source text: as §4

opiate receptors kappa = molecular target: T1, opiate receptors kappa (Homo sapiens, UniProt P41145); assay: Binding to other brain receptors: opiate kappa; conditions: negligible affinity
T1 construct: from tissue
T1 sequence (P41145 whole entry): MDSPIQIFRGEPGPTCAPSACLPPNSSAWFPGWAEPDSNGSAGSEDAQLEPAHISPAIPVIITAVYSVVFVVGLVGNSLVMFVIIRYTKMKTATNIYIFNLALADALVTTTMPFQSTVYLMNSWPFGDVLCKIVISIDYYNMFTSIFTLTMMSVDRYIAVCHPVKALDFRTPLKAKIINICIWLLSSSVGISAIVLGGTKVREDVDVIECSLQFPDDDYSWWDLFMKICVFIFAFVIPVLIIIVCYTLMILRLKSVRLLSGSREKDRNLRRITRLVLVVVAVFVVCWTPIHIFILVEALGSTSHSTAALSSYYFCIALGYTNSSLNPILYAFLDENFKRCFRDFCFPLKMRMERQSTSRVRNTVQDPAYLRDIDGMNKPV
Source text: as §4

opiate receptors mu = molecular target: T2, opiate receptors mu (Homo sapiens, UniProt P35372); assay: Binding to other brain receptors: opiate mu; conditions: negligible affinity
T2 construct: from tissue
T2 sequence (P35372 whole entry): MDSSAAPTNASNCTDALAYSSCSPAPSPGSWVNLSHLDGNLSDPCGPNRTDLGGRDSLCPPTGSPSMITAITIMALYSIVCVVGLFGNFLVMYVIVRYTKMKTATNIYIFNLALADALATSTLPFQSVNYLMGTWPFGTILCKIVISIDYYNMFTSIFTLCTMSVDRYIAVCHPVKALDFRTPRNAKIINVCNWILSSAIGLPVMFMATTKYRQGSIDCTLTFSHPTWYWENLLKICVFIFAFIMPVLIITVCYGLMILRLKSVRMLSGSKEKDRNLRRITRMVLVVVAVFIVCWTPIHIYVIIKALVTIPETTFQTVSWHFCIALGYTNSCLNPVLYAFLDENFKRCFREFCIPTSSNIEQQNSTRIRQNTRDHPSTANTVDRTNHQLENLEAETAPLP
Source text: as §4

adrenoreceptors beta1 = molecular target: T3, adrenoreceptors beta1 (Homo sapiens, UniProt P08588); assay: Binding to other brain receptors: adrenoreceptor beta1; conditions: negligible affinity
T3 construct: from tissue
T3 sequence (P08588 whole entry): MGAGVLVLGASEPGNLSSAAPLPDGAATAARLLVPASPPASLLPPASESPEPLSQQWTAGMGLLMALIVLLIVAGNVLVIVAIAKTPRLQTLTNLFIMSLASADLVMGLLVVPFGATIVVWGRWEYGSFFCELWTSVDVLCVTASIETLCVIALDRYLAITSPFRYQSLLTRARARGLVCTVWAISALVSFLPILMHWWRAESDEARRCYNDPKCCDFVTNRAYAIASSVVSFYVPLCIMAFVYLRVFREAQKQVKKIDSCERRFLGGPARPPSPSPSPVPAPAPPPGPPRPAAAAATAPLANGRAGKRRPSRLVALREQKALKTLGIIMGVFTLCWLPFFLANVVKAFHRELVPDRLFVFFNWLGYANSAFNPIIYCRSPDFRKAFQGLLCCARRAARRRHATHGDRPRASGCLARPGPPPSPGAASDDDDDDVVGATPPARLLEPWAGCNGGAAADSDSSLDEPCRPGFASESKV
Source text: as §4

dopamine receptors = assay: Binding to other brain receptors: dopamine; conditions: negligible affinity
Source text: as §4

adrenoreceptors alpha1 = assay: Binding to other brain receptors: adrenoreceptor alpha1; conditions: negligible affinity
Source text: as §4

adrenoreceptors beta2 = molecular target: T4, adrenoreceptors beta2 (Homo sapiens, UniProt P07550); assay: Binding to other brain receptors: adrenoreceptor beta2; conditions: negligible affinity
T4 construct: from tissue
T4 sequence (P07550 whole entry): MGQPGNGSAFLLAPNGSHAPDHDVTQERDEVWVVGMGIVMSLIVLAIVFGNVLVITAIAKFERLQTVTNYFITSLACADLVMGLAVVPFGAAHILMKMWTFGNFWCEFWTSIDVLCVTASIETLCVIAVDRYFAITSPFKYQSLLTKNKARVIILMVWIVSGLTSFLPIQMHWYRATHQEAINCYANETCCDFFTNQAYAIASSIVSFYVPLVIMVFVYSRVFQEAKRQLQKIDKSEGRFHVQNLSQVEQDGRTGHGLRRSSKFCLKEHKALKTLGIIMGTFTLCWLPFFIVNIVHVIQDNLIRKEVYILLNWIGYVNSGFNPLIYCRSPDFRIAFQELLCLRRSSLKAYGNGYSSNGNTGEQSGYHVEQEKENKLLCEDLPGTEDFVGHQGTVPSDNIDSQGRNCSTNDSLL
Source text: as §4

[5] = molecular target: benzodiazepines receptors; assay: Binding to other brain receptors: benzodiazepines; conditions: negligible affinity
Source text: as §4

GABA receptors = assay: Binding to other brain receptors: GABA; conditions: negligible affinity
Source text: as §4

Muscarinic receptor 2 = assay: Binding to muscarinic receptor 2 ([^3 H]quinuclidinyl benzylate), rat brain; conditions: 0.3 nM [^3 H]quinuclidinyl benzylate, 60 minutes at 25° C., pH 7.5, rat brain; read-out: Affinity for M2 muscarinic receptors, [^3 H]quinuclidinyl benzylate, IC50
Procedure: as §4
The preparation is performed from brains of male rats weighing 150 to 200 g (Iffa Credo).
The brains are ground (Teflon-glass) in 0.32M sucrose solution. The homogenate is centrifuged for 10 minutes at 1,000 g (0°-4° C.)
The supernatant obtained is collected and centrifuged at 30,000 g for 15 minutes (0°-4° C.).
The regulus is resuspended in 50 mM Tris buffer pH 7.5 and the new homogenate is centrifuged again at 30,000 g for 15 minutes (0°-4° C.).
After removal of the supernatant, the regulus may be used immediately or stored for up to 1 month at -30° C.
For an experiment, the regulus are first thawed, if necessary, at room temperature and resuspended using a Dounce in 50 mM Tris buffer pH 7.5. 2 ml aliquots are incubated for 60 minutes at 25° C. in the presence of 0.3 nM [^3 H]quinuclidinyl benzylate, either alone, or with the test product, or with 10^-5 M benzatropine to determine the non-specifically bound radioactivity.
At the end of the incubation period, the incubate tubes are cooled to 4° C. and filtered rapidly on Whatman GF/C filters. The filters are rinsed with 3×5 ml of […] Tris buffer pH 7.5 and the measurements are then performed by liquid scintillation (Henry I. Yamamura, Solomon H. Snyder, Proc. Nat. Acad. Sc. (1974) 71, No. 5, 1725-1729).
(§5) The results are expressed as an IC50 (concentration needed to inhibit by 50% the specifically bound radioactivity).

[6] = tested on: isolated guinea pig ileum, contractions induced by histamine; assay: Antagonist action on contractions induced by histamine, isolated guinea pig ileum; conditions: histamine 1×10^-5 M; contact time one minute; 37° C.; read-out: Antagonist to different agents (IC50), Histam.
Procedure: as §1
as §2, with “Atropine, diphenhydramine and papaverine were emplohyed as reference products.” left out
as §3

[7] = tested on: isolated guinea pig ileum, contractions induced by barium chloride; assay: Antagonist action on contractions induced by barium chloride, isolated guinea pig ileum; conditions: barium chloride 2×10^-4 M; contact time one minute; 37° C.; read-out: Antagonist to different agents (IC50), BaCl2
Procedure: as §1, §2, §3

adrenoreceptors alpha2 = assay: Binding to other brain receptors: adrenoreceptor alpha2; conditions: negligible affinity
Source text: as §4

[8] = molecular target: T5, serotonin 5-HT2 receptors (Homo sapiens, UniProt P28223); assay: Binding to other brain receptors: serotonin 5-HT2; conditions: negligible affinity
T5 construct: from tissue
T5 sequence (P28223 whole entry): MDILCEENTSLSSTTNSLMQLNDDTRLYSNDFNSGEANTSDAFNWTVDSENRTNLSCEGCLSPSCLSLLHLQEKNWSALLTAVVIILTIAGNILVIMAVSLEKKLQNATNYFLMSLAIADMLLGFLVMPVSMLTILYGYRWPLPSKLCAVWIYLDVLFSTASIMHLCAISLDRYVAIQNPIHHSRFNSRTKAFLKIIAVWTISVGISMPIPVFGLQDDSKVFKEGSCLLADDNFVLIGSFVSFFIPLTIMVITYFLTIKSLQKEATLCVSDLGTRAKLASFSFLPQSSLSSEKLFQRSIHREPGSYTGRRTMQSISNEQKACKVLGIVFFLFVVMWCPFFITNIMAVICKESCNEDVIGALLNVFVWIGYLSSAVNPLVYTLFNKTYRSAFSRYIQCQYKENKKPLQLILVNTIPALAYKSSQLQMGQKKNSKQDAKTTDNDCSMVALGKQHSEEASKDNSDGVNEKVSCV
Source text: as §4

Muscarinic receptor 1 = molecular target: T6, Muscarinic receptor 1 (Rattus norvegicus, UniProt P08482); assay: Binding to muscarinic receptor 1 ([^3 H]pirenzepine), rat cortex; conditions: for IC50: 0.25 nM [^3 H]pirenzepine, 60 minutes at 25° C., pH 7.4, rat cortex, read-out: Affinity for M1 muscarinic receptors, [^3 H]pirenzepine, IC50; for affinity for the muscarinic receptor (in words): summary of Table 1
T6 construct: cortices removed from the brains of male rats; from tissue; host or cells: rat brain cortex homogenate
T6 sequence (P08482 1-460): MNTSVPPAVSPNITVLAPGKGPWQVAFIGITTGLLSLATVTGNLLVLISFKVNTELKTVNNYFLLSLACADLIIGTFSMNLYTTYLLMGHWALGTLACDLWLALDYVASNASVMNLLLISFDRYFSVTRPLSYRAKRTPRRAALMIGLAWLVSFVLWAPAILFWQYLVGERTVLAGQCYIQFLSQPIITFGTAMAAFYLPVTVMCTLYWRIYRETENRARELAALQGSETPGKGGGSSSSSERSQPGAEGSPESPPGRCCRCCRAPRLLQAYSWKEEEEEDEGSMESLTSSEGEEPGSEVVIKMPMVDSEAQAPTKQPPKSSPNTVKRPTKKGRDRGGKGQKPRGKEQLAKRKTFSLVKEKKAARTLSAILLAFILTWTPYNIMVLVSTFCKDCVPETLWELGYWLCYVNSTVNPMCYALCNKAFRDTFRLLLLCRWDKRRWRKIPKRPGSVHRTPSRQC
Procedure: as §4
Preparation of this is carried out from cortices removed from the brains of male rats weighing 150 to 200 g (Iffa Credo), ground in a Polytron in a 10 mM Na/K buffer pH 7.4. After incubation (0.5 ml aliquots of homogenate) for 60 minutes at 25° C. in the presence of 0.25 nM [^3 H]pirenzepine, either alone, or with the test product, or with an excess of 10^-5 M pirenzepine (to determine the non-specifically bound radioactivity), the incubates are cooled and filtered.
The filtration is performed on Whatman GF/C filters prewashed in a 0.05% strength solution of polyethylenimine. The filters are rinsed with 3×5 ml of 10 mM Na/K phosphate buffer pH 7.4 and the measurements are then performed by liquid scintillation.
as §5

[9] = mice, i.p. 30 minutes before carbachol 1 mg/kg s.c., read-out: Dose inhibiting carbachol-induced diarrhoea in 50% of the animals
[10] = mice, i.p. 30 minutes before carbachol 1 mg/kg s.c., read-out: Dose inhibiting carbachol-induced eye watering in 50% of the animals
[11] = mice, i.p. 30 minutes before carbachol 1 mg/kg s.c., read-out: Dose inhibiting carbachol-induced salivation in 50% of the animals
[12] = mice, i.p. 30 minutes before carbachol 1 mg/kg s.c.

Structure (SMILES)	Agonist action pD2 [1]	IC50 [2] [µM]	IC50 (histamine receptors) [µM]	IC50 [4] [µM]	IC50 (opiate receptors kappa) [µM]	IC50 (opiate receptors mu) [µM]	IC50 (adrenoreceptors beta1) [µM]	IC50 (dopamine receptors) [µM]	IC50 (adrenoreceptors alpha1) [µM]	IC50 (adrenoreceptors beta2) [µM]	IC50 [5] [µM]	IC50 (GABA receptors) [µM]	IC50 (Muscarinic receptor 2) [µM]	IC50 [6] [µM]	IC50 [7] [µM]	IC50 (adrenoreceptors alpha2) [µM]	IC50 [8] [µM]	ED50 [3, 9] [mg/kg]	ED50 [3, 10] [mg/kg]	ED (1 degree C) [3, 12] [mg/kg]	other results
COC(=O)C1=CCCN(C)C1 [Arecoline, arecoline, reference compound]	6.68	–	–	–	–	–	–	–	–	–	–	–	–	–	–	–	–	–	–	–	–
CN1[C@@H]2CC[C@H]1C[C@@H](OC(=O)C(CO)c1ccccc1)C2 (some centres unmarked) [Atropine, reference compound]	–	0.0095	–	–	–	–	–	–	–	–	–	–	–	–	–	–	–	–	–	–	ED50 ([3]; read-out: Dose inhibiting carbachol-induced diarrhoea in 50% of the animals): 0.04 mg/kg; ED50 ([3]; read-out: Dose inhibiting carbachol-induced eye watering in 50% of the animals): 0.05 mg/kg; ED50 ([3]; read-out: Dose inhibiting carbachol-induced salivation in 50% of the animals): 0.06 mg/kg
CCN(CC)c1ccc(S(=O)(=O)N2CCCCC2=O)cc1 [Example 2, 1-[4-(Diethylamino)benzenesulphonyl]-2-piperidinone]	< 5	0.93	5 to 10	5 to 10	5 to 10	5 to 10	5 to 10	5 to 10	5 to 10	5 to 10	5 to 10	5 to 10	4.6	> 10	> 10	5 to 10	5 to 10	5	> 50	> 50	ED50 [3, 11]: > 50 mg/kg; IC50 (Muscarinic receptor 1): 0.314 µM; affinity for the muscarinic receptor (in words) (Muscarinic receptor 1): noteworthy advantageous affinity for the muscarinic receptor, and mainly for the M1 type receptor
O=C1CCCCN1S(=O)(=O)c1ccc(N2CCCCC2)cc1 [Example 4, 1-[4-(1-Piperidinyl)benzenesulphonyl] -2-piperidinone]	< 5	1.5	5 to 10	5 to 10	5 to 10	5 to 10	5 to 10	5 to 10	5 to 10	5 to 10	5 to 10	5 to 10	2.24	> 10	> 10	5 to 10	5 to 10	6	> 50	> 50	ED50 [3, 11]: > 50 mg/kg; IC50 (Muscarinic receptor 1): 0.128 µM; affinity for the muscarinic receptor (in words) (Muscarinic receptor 1): noteworthy advantageous affinity for the muscarinic receptor, and mainly for the M1 type receptor
O=C1CCCCN1S(=O)(=O)c1ccc(N2CCCCCC2)cc1 [Example 5, 1-[4-(1-Hexahydroazepinyl)benzenesulphonyl]-2-piperidinone]	< 5	0.27	5 to 10	5 to 10	5 to 10	5 to 10	5 to 10	5 to 10	5 to 10	5 to 10	5 to 10	5 to 10	0.66	> 10	> 10	5 to 10	5 to 10	2	> 50	50	IC50 (Muscarinic receptor 1): 0.049 µM; affinity for the muscarinic receptor (in words) (Muscarinic receptor 1): noteworthy advantageous affinity for the muscarinic receptor, and mainly for the M1 type receptor
COc1ccc(Cc2nccc3cc(OC)c(OC)cc23)cc1OC [Papaverine, papaverine, reference compound]	–	–	–	–	–	–	–	–	–	–	–	–	–	–	45	–	–	–	–	–	–
